Read-outs that look alike come from different tables or passages of the source.
Tests used:
A375 melanoma cells = test: Transwell cell migration assay, A375 melanoma cells; format: cell-based; settings: Homo sapiens, A-375
Description: A375 melanoma cells (CRL-1619, American Type Culture Collection (“ATCC”), Manassas Va., USA)) grown in RPMI medium supplement with 10% FBS were starved for 24 hours in FBS free medium. After starvation of 24 hr, 5×10^4 cells in FBS free medium were placed in the upper chamber of 24-well, Transwell apparatus (CORNING TRANS WELL® polycarbonate membrane inserts, 5 μm pore size) with solvent (DMSO/PEG400) or different concentrations of Compound 1 (PRT7000467), Compound 2 (PRT7041128), or Compound 3 (PRT7081582). Medium containing FBS and compounds was added to the bottom chamber. Twenty-four hours later the melanoma cells from the upper chamber were removed with a cotton swab. Cells that migrated to the lower side of the membrane were stained with Calcein-AM (Sigma) and images were taken with fluorescence microscope. The number of migrating cells was quantified by ImageJ software and the IC50 values were calculated using Prism software (Graphpad) (FIG. 1A,1E).
A375 (melanoma) (CRL-1619, ATCC, Manassas, Va., USA), A431 (melanoma) (CRL-2592, ATCC, Manassas, Va., USA), A2058 (melanoma) (CRL-11147, ATCC, Manassas, Va., USA), MDA-MB-231 (breast) (HTB-26, ATCC, Manassas, Va., USA), LS175T (colon) (ATCC, Manassas, Va., USA), HT29 (colon) (HTB-38, ATCC, Manassas, Va., USA), PC3 (prostate) (CRL-1435, ATCC, Manassas, Va., USA), Panc03.27 (pancreatic) (ATCC, Manassas, Va., USA), 4T1 (breast-mouse) (CRL-2539, ATCC, Manassas. Va., USA), D122 (lung-mouse) (the Weizmann Institute of Science), D122-luc (lung-mouse) (the Weizmann Institute of Science), and B16 F10.9 (melanoma-mouse) cells (Caliper Life Sciences, Hopkinton Mass.), were grown in RPMI medium supplemented with 10% FBS. HUVEC cells were grown in Endothelial Cell Growth Medium 2 and THP1 cells were grown in RPMI medium supplemented with 10% FBS, 2 mM L-Glutamine, 1.5 g/L sodium bicarbonate, 10 mM Hepes, 1 mM sodium pyruvate, 4.5 g/L glucose and 0.05 mM 2-mercaptoethanol. The cells were starved for 24 hours in medium without FBS. At the end of the starvation, 5×10^4 cells in medium without FBS were placed in the upper chamber of 24-well, Transwell apparatus (CORNING TRANSWELL® polycarbonate membrane inserts, 5 μm pore size for […] and THP1 cells and 8 μm pore size for all the other cells) with solvent (DMSO/PEG400) or different concentrations of compound 1 (PRT7000467). Medium with FBS and compounds was added to the bottom chamber. Twenty-four hours later the cells from the upper chamber were removed with a cotton swab. Cells that migrated to the lower side of the membrane were stained with Calcein-AM (Sigma) and images were taken with a fluorescence microscope. The number of migrating cells was quantified by ImageJ software and the IC50 values were calculated using Prism software (Graphpad).

A375 cells = test: Cell viability, WST-1 reagent, A375 cells grown in two-dimension; format: cell-based; settings: WST-1, 72 h post treatment
Description: Compound 1 (PRT7000467), Compound 2 (PRT7041128), and Compound 3 (PRT7081582) are not toxic to cells grown in two-dimension. A375 cells were cultured with RPMI and 10% FBS. The cells were treated with different concentrations of Compound 1 (PRT7000467) and Compound 2 (PRT7041128), then the viability of the cells was determined seventy-two hours post treatment using WST-1 reagent (Roche) (FIG. 1B)

oxazolone-induced DTH = test: Oxazolone-induced delayed-type hypersensitivity (DTH), ear swelling; format: in vivo, BALB/c mice; settings: oral, 1 hour before oxazolone challenge; compared with the control (FIG. 5)
Description: Anti inflammatory assay A delayed-type hypersensitivity (DTH) reaction is an expression of cell-mediated immunity and plays a major role in the pathology and chronicity of many inflammatory disorders. Delayed-type hypersensitivity (DTH) reactions can be induced by various allergens, including oxazolone, 2,4-dinitrofluorobenzene (DNFB) and sheep red blood cells (SRBCs). One of the most characteristic DTH phenomenons is contact hypersensitivity, which is characterized by swelling and by increased tissue levels of cytokines. Contact hypersensitivity (CHS) is a T cell-mediated immune reaction in response to cutaneous sensitization and challenge with reactive haptens that are capable of binding directly to soluble and cell-associated proteins and recognized by T cells in the context of self-MHC products. The cells that recognize antigen-protein complex in the skin are the Langerhans cells (LCs). […]
Ear swelling response will be determined by ear thickness measured with a micrometer before and 24 hours after oxazolone challenge and reported as the mean change in ear thickness (ΔT±S.E.M.). Percent suppression of ear swelling response will be calculated as % suppression=[1−(ΔT of sensitized mice exposed to experimental treatment/ΔT of sensitized mice exposed to vehicle treatment)]×100.

[1] = A375 melanoma cells, Transwell 5 μm pore, 24 h, Example 3 (FIGS. 1A, 1E), read-out: IC50 in the migration assay

Cc1cc(C)nc(NS(=O)(=O)c2ccc(NC(=O)/C(=C\c3cccs3)NC(=O)c3cccs3)cc2)n1 [Compound 1]
IC50 (A375 melanoma cells; A375, Melanoma, reexamined, Table 1, 6 repeats, read-out: IC50 (μM), Transwell migration): 1.7 µM | IC50 (A375 melanoma cells; [1]): 5.7 µM | toxicity to cells grown in two-dimension (A375 cells): not toxic | anti-inflammatory activity (ear swelling response) (oxazolone-induced DTH): same anti-inflammatory activity as the control

Cc1cc(S(=O)(=O)Nc2ncccn2)ccc1NC(=O)/C(=C\c1cccs1)NC(=O)c1cccs1 [Compound 3]
IC50 (A375 melanoma cells; [1]): 1.41 µM | toxicity to cells grown in two-dimension (A375 cells): not toxic | anti-inflammatory activity (ear swelling response) (oxazolone-induced DTH): same anti-inflammatory activity as the control

From US20110130374A1, “Small Pyrimidine Derivatives and Methods of Use Thereof” (BIOSEARCH(2007) LTD., priority 2009, published 2011)
